In patent US6440974B2, “Compounds useful for inhibition of farnesyl protein transferase” (Schering Corporation, priority 1997, dated 2002):

Assays:
[1] = tested on: COS Cell; assay: COS Cell IC50 (Cell-Based Assay); conditions: for IC50: cell-based assay
Protocol: (§1) FPT IC50 (inhibition of famesyl protein transferase, in vitro enzyme assay) and COS Cell IC50 (Cell-Based Assay) were determined following the assay procedures described in WO 95/10516, published Apr. 20, 1995. GGPIT IC50 (inhibition of geranylgeranyl protein transferase, in vitro enzyme assay), Cell Mat Assay, and anti-tumor activity (in vivo anti-tumor studies) could be determined by the assay procedures described in WO 95/10516. The disclosure of WO 95/10516 is incorporated herein by reference thereto.

[2] = target: farnesyl protein transferase (Homo sapiens, UniProt P49354+P49356); assay: FPT IC50 (inhibition of farnesyl protein transferase, in vitro enzyme assay); format: biochemical
Protocol: as §1

[3] = tested on: Human tumor cells; assay: Soft Agar Assay (anchorage-independent growth); format: cell-based
Protocol: Anchorage-independent growth is a characteristic of tumorigenic cell lines. Human tumor cells can be suspended in growth medium containing 0.3% agarose and an indicated concentration of a farnesyl transferase inhibitor. The solution can be overlayed onto growth medium solidified with 0.6% agarose containing the same concentration of farnesyl transferase inhibitor as the top layer. After the top layer is solidified, plates can be incubated for 10-16 days at 37° C. under 5% CO2 to allow colony outgrowth. After incubation, the colonies can be stained by overlaying the agar with a solution of MTT (3-[4,5-dimethylthiazol-2-yl]-2,5-diphenyltetrazolium bromide, Thiazolyl blue) (1 mg/mL in PBS). Colonies can be counted and the IC50's can be determined.

Structure (SMILES) | melting point | IC50 [2] [nM] | IC50 [3] [nM] | IC50 [1] [nM] | IC50 ([1]; COS) [nM] | COS Cell, percent at given concentration (printed in the COS Cell IC50 column) ([1]; @ 10 nM) [% @ 10]
O=C(C1CC2CCC1CO2)N1CCC(C2c3ncc(Br)cc3CCc3cc(Cl)cc(Br)c32)CC1 (single isomer, unassigned) [Example 29] | 152 to 164 °C (dec.) | 6.7 |  | 30 |  | 
O=C(C1CC2CCC1CO2)N1CCC(C2c3ncc(Br)cc3CCc3cc(Cl)cc(Br)c32)CC1 (single isomer, unassigned) [Example 30] | 151 to 159 °C (dec.) | 7.5 |  | 75 |  | 
O=C(CC1CCOCC1)N1CCC([C@H]2c3ncc(Br)cc3CCc3cc(Cl)cc(Br)c32)CC1 [Example 1] | 83.2 to 88.7 °C |  |  |  |  | 
O=C(CC1=CCOCC1)N1CCC(C2c3ncc(Br)cc3CCc3cc(Cl)cc(Br)c32)CC1 (centres unmarked) [Example 3] | 110.3 to 113.9 °C | 6.1 |  |  |  | 
O=C(CC1COCCO1)N1CCC(C2c3ncc(Br)cc3CCc3cc(Cl)cc(Br)c32)CC1 (centres unmarked) [Example 6] | 111 to 124 °C (dec.) | 23 |  |  |  | 
O=C(CC1CCCO1)N1CCC(C2c3ncc(Br)cc3CCc3cc(Cl)cc(Br)c32)CC1 (centres unmarked) [Example 7] | 107 to 115 °C (dec.) | 42 |  |  |  | 
O=C(CC1CCOCC1)N1CCN([C@@H]2c3ccc(Cl)cc3CCc3cc(Br)cnc32)CC1 [Example 33] |  | 45 |  |  |  | 
O=C(CN1CCSCC1)N1CCC([C@H]2c3ncc(Br)cc3CCc3cc(Cl)cc(Br)c32)CC1 [Example 37] |  | 4.9 |  |  | < 10 | 

Further lines, with some results ahead:

melting point | IC50 [2] [nM] | IC50 [3] [nM] | Structure (SMILES) | IC50 [1] [nM] | IC50 ([1]; COS) [nM] | COS Cell, percent at given concentration (printed in the COS Cell IC50 column) ([1]; @ 10 nM) [% @ 10]
116 to 122 °C (dec.) | 2 |  | O=C(CC1CCCCO1)N1CCC(C2c3ncc(Br)cc3CCc3cc(Cl)cc(Br)c32)CC1 (centres unmarked) [Example 8] |  | 68 | 
 | 3.1 |  | O=C(CN1CCOCC1)N1CCC([C@H]2c3ncc(Br)cc3CCc3cc(Cl)cc(Br)c32)CC1 [Example 36] |  |  | 
 | 4.7 |  | O=C(CN1CC[S+]([O-])CC1)N1CCN(C2c3ccc(Cl)c(Br)c3CCc3cc(Br)cnc32)CC1 (centres unmarked) [Example 39] |  | 68 | 
141 to 151 °C (dec.) | 2.2 | 8 | O=C(CC1CCOCC1)N1CCC([C@@H]2c3c(Br)cc(Cl)cc3CCc3cc(Br)c[n+]([O-])c32)CC1 [Example 40] |  |  | 100
